Measured values from US11130960B2, “Methods for conferring or enhancing herbicide resistance on plants and/or alga with protoporphyrinogen oxidase variants” (FARM HANNONG CO., LTD., priority 2014, dated 2021).

What was measured:
Experiment in all cases: Seed germination / growth on ½ MS medium containing herbicide
[1] = system: wild-type Arabidopsis thaliana (Col-0); assay type: in vivo; settings: ½ MS medium with 70 nM Tiafenacil, 50 uM glufosinate, or 70 nM Tiafenacil and 50 uM glufosinate
Method: (§1) To examine tiafenacil resistance of T2 generation seeds which survived under treatment of 1 μM tiafenacil, among the CyPPO2 and CyPPO8 transformants, Arabidopsis thaliana seeds were sown in ½ MS medium (1.125 g/L of MS salt, 10 g/L of sucrose, 7 g/L of Agar) containing 70 nM tiafenacil. […] Therefore, survival under 70 nM tiafenacil means that a plant has resistance against tiafenacil.
(§2) In Arabidopsis thaliana transformant including CyPPO2 or CyPPO8 gene, which was obtained by transformation using the plant transformation vector prepared in Example 6, the PPO activity-inhibiting herbicide-resistant gene and glufosinate-resistant gene are expressed at the same time. Therefore, it was examined whether cross-treatment of Arabidopsis thaliana transformant with two herbicides, namely, PPO activity-inhibiting herbicide and glufosinate is effective for weed control. To this end, seeds of CyPPO2 and BAR gene-inserted Arabidopsis thaliana transformant, or CyPPO8 and BAR gene-inserted Arabidopsis thaliana transformant were sterilized and treated at low temperature of 4° C. for 2 days. The seeds were sown in a ½ MS medium (Duchefa), a ½MS medium containing 70 nM Tiafenacil, a ½MS medium containing 50 uM glufosinate, or a ½MS medium containing 70 nM Tiafenacil and 50 uM glufosinate, and grown at 23° C. under 16 hour-light/8 hour-dark conditions for 7-14 days. Arabidopsis thaliana on the herbicide media was CyPPO2 or CyPPO8-transformed seed and the wild-type Col0 as a control, respectively. The transformant and the control were cultured on herbicide media. After 2 weeks, they were examined.
(§3) In Example 9, it was confirmed that Arabidopsis thaliana transformant prepared in the present invention has resistance against the two PPO-based herbicides, Tiafenacil and Saflufenacil at the same time, and therefore, it was tested whether the cross-treatment of Arabidopsis thaliana transformant with Tiafenacil and Saflufenacil is effective for weed control. To this end, seeds of CyPPO2 or CyPPO8 gene-inserted Arabidopsis thaliana transformant were sterilized and treated at low temperature of 4° C. for 2 days. The seeds were sown in a ½ MS medium, a ½MS medium containing 70 nM Tiafenacil, a ½MS medium containing 70 nM Saflufenacil, or a ½MS medium containing 35 nM Tiafenacil and 35 nM Saflufenacil, and grown at 23° C. under 16 hour-light/8 hour-dark conditions for 7-14 days. Arabidopsis thaliana on the herbicide media was CyPPO2 or CyPPO8-transformed seed and the wild-type Col0 as a control, respectively. The transformant and the control were cultured on herbicide media. After 2 weeks, they were examined.

CyPPO8 transformants = assay type: in vivo, Arabidopsis thaliana; settings: CyPPO8 and BAR gene-inserted; ½ MS medium with 70 nM Tiafenacil, 50 uM glufosinate, or both
Method: as §1, §2, §3

CyPPO2 transformants = assay type: in vivo, Arabidopsis thaliana; settings: CyPPO2 and BAR gene-inserted; ½ MS medium with 70 nM Tiafenacil, 50 uM glufosinate, or both
Method: as §1, §2, §3

`CP(=O)(O)CCC(N)C(=O)O` (stereo not drawn) [glufosinate] was tested, and the “germination / growth on herbicide medium after 2 weeks” value (shortened to “germination / growth”) [1] was “not germinated”, the “germination / growth” value (CyPPO8 transformants) was “normally grew” and the “germination / growth” value (CyPPO2 transformants) was “normally grew”.
